Reference: patent US20250099474A1 (priority 2022, published 2025)
Like-named read-outs stand apart in the source and are kept apart here.

Test system: SARS-CoV-2
Assay type: in vivo, human
Conditions: Phase 3 Part; for Time to resolution of five COVID-19 symptoms: Maximum value / Time to resolution of 12 COVID-19 symptoms: Maximum value / Time to resolution of 14 COVID-19 symptoms: Maximum value: +: includes censored data
Description: The primary endpoint of Phase 3 Part was the time to resolution of five COVID-19 symptoms in mild/moderate SARS-CoV-2-infected patients, and the efficacy was verified by evaluation of the five COVID-19 symptoms in four grades (0: none, 1: mild, 2: moderate, 3: severe) by the patients themselves.
The 750/250 mg group received 750 mg on Day 1 as a loading dose and 250 mg on Days 2 to 5 as a maintenance dose.
The primary efficacy endpoint of Phase 3 Part for mild/moderate SARS-CoV-2-infected patients was the time to resolution of the five COVID-19 symptoms.
Existing symptoms that existed before the onset of COVID-19 and were determined by the subject to be worsening at the baseline (pre-administration test) time point had to be improved […] from the severity at the baseline time point. • Severity at baseline was “severe”→“moderate”, “mild”, or “none” • Severity at baseline was “moderate”→“mild”, or “none” • Severity at baseline was “mild”→[…] “none” • Existing symptoms that existed before the onset of COVID-19 and were determined by the subject not to be worsening at the baseline (pre-administration test) time point had to be maintained or improved from the severity at the baseline time point. • Severity at baseline was “severe”->“severe”, “moderate”, “mild”, or “none” • Severity at baseline was “moderate”->“moderate”, “mild”, or “none” • Severity at baseline was “mild”→“mild”, or “none” • Regarding symptoms other than the above, that is, symptoms that were not present before the onset of COVID-19 and developed at or after the baseline (pre-administration test) time point, such symptoms had to be eliminated. • Severity at baseline was “severe”, “moderate”, or “mild”→“none”
As the key secondary analysis of the primary endpoint, the same analysis as the primary analysis was performed for the population of the mild/moderate SARS-CoV-2-infected patients in the ITT population.

[1] = ITT, onset to randomization less than 72 hours, 375/125 mg group
[2] = mild/moderate patients, ITT population, 375/125 mg group
[3] = mild/moderate patients, ITT population, 750/250 mg group
[4] = mild/moderate patients, ITT, onset to randomization less than 72 hours, 375/125 mg group
[5] = mild/moderate patients, ITT, onset to randomization less than 72 hours, 375/125 mg group, 336 cases analyzed
[6] = mild/moderate patients, ITT, onset to randomization less than 72 hours, 750/250 mg group
[7] = mild/moderate patients, ITT, onset to randomization less than 72 hours, 750/250 mg group, 330 cases analyzed

## Cn1cnc(Cn2c(=O)[nH]/c(=N\c3cc4cn(C)nc4cc3Cl)n(Cc3cc(F)c(F)cc3F)c2=O)n1 [(6E)-6-[(6-chloro-2-methyl-2H-indazol-5-yl)imino]-3-[(1-methyl-1H-1,2,4-triazol-3-yl)methyl]-1-[(2,4,5-trifluorophenyl)methyl]-1,3,5-triazinane-2,4-dione]
ITT population, 375/125 mg group
  Time to resolution of the five symptoms of COVID-19 shortened as the median value compared with placebo group by: 10.6 h
[1]
  Time to resolution of 12 COVID-19 symptoms reduced compared to placebo group by a median of: 34.0 h
  Time to resolution of 14 COVID-19 symptoms reduced compared to placebo group by a median of: 44.1 h
  Time to resolution of the five COVID-19 symptoms shortened as the median compared with placebo group by: 24.3 h
mild/moderate patients, ITT population
  Time to resolution of the five symptoms of COVID-19, significance vs placebo: no significant difference was observed
[2]
  Time to resolution of five COVID-19 symptoms: 25% point: 104.3, — hour
  Time to resolution of five COVID-19 symptoms: Difference of RMST (vs placebo): -5.6 h
  Time to resolution of five COVID-19 symptoms: Difference of median value (vs placebo): -10.6 h
  Time to resolution of five COVID-19 symptoms: Kaplan-Meier median value: 189.7 h
  Time to resolution of five COVID-19 symptoms: Minimum value: 2.4 h
  Time to resolution of five COVID-19 symptoms: Number of events (value in parentheses): (73.0)
  Time to resolution of five COVID-19 symptoms: Restricted mean survival time during 21 days (RMST): 254.4 h
  Time to resolution of five COVID-19 symptoms: Maximum value: 493.3 h
mild/moderate patients, ITT population, 375/125 mg group, 582 cases analyzed
  Time to resolution of five COVID-19 symptoms: Number of events: 425
[3]
  Time to resolution of five COVID-19 symptoms: 25% point: 99.2 h
  Time to resolution of five COVID-19 symptoms: 75% point: 434.8 h
  Time to resolution of five COVID-19 symptoms: Difference of RMST (vs placebo): -14.9 h
  Time to resolution of five COVID-19 symptoms: Difference of median value (vs placebo): -23.0 h
  Time to resolution of five COVID-19 symptoms: Kaplan-Meier median value: 177.3 h
  Time to resolution of five COVID-19 symptoms: Minimum value: 9.4 h
  Time to resolution of five COVID-19 symptoms: Number of events (value in parentheses): (75.3)
  Time to resolution of five COVID-19 symptoms: Restricted mean survival time during 21 days (RMST): 245.1 h
  Time to resolution of five COVID-19 symptoms: Maximum value: 493.1 h
mild/moderate patients, ITT population, 750/250 mg group, 575 cases analyzed
  Time to resolution of five COVID-19 symptoms: Number of events: 433
[4]
  Time to resolution of 12 COVID-19 symptoms: 25% point: 105.6, — hour
  Time to resolution of 12 COVID-19 symptoms: Difference of RMST (vs placebo): -16.9 h
  Time to resolution of 12 COVID-19 symptoms: Difference of median value (vs placebo): -34.0 h
  Time to resolution of 12 COVID-19 symptoms: Kaplan-Meier median value: 179.2 h
  Time to resolution of 12 COVID-19 symptoms: Minimum value: 2.4 h
  Time to resolution of 12 COVID-19 symptoms: Number of events (value in parentheses): (72.6)
  Time to resolution of 12 COVID-19 symptoms: Restricted mean survival time during 21 days (RMST): 253.9 h
  Time to resolution of 14 COVID-19 symptoms: 25% point: 105.6, — hour
  Time to resolution of 14 COVID-19 symptoms: Difference of RMST (vs placebo): -20.1 h
  Time to resolution of 14 COVID-19 symptoms: Difference of median value (vs placebo): -44.1 h
  Time to resolution of 14 COVID-19 symptoms: Kaplan-Meier median value: 187.8 h
  Time to resolution of 14 COVID-19 symptoms: Minimum value: 2.4 h
  Time to resolution of 14 COVID-19 symptoms: Number of events (value in parentheses): (71.7)
  Time to resolution of 14 COVID-19 symptoms: Restricted mean survival time during 21 days (RMST): 257.9 h
  Time to resolution of five COVID-19 symptoms: 25% point: 99.5 h
  Time to resolution of five COVID-19 symptoms: 75% point: 424.8 h
  Time to resolution of five COVID-19 symptoms: Difference of RMST (vs placebo): -19.4 h
  Time to resolution of five COVID-19 symptoms: Difference of median value (vs placebo): -24.3 h
  Time to resolution of five COVID-19 symptoms: Kaplan-Meier median value: 167.9 h
  Time to resolution of five COVID-19 symptoms: Minimum value: 2.4 h
  Time to resolution of five COVID-19 symptoms: Number of events (value in parentheses): (75.6)
  Time to resolution of five COVID-19 symptoms: Restricted mean survival time during 21 days (RMST): 241.6 h
  Time to resolution of 12 COVID-19 symptoms: Maximum value: 489.1 h
  Time to resolution of 14 COVID-19 symptoms: Maximum value: 489.1 h
  Time to resolution of five COVID-19 symptoms: Maximum value: 489.1 h
[5]
  Time to resolution of 12 COVID-19 symptoms: Number of events: 244
  Time to resolution of 14 COVID-19 symptoms: Number of events: 241
  Time to resolution of five COVID-19 symptoms: Number of events: 254
[6]
  Time to resolution of 12 COVID-19 symptoms: 25% point: 114.2 h
  Time to resolution of 12 COVID-19 symptoms: 75% point: 422.7 h
  Time to resolution of 12 COVID-19 symptoms: Difference of RMST (vs placebo): -20.8 h
  Time to resolution of 12 COVID-19 symptoms: Difference of median value (vs placebo): -28.3 h
  Time to resolution of 12 COVID-19 symptoms: Kaplan-Meier median value: 184.9 h
  Time to resolution of 12 COVID-19 symptoms: Minimum value: 9.4 h
  Time to resolution of 12 COVID-19 symptoms: Number of events (value in parentheses): (78.2)
  Time to resolution of 12 COVID-19 symptoms: Restricted mean survival time during 21 days (RMST): 249.9 h
  Time to resolution of 14 COVID-19 symptoms: 25% point: 117.1 h
  Time to resolution of 14 COVID-19 symptoms: 75% point: 431.6 h
  Time to resolution of 14 COVID-19 symptoms: Difference of RMST (vs placebo): -22.0 h
  Time to resolution of 14 COVID-19 symptoms: Difference of median value (vs placebo): -41.5 h
  Time to resolution of 14 COVID-19 symptoms: Kaplan-Meier median value: 190.3 h
  Time to resolution of 14 COVID-19 symptoms: Minimum value: 9.4 h
  Time to resolution of 14 COVID-19 symptoms: Number of events (value in parentheses): (77.3)
  Time to resolution of 14 COVID-19 symptoms: Restricted mean survival time during 21 days (RMST): 256.0 h
  Time to resolution of five COVID-19 symptoms: 25% point: 96.7 h
  Time to resolution of five COVID-19 symptoms: 75% point: 360.9 h
  Time to resolution of five COVID-19 symptoms: Difference of RMST (vs placebo): -26.1 h
  Time to resolution of five COVID-19 symptoms: Difference of median value (vs placebo): -21.0 h
  Time to resolution of five COVID-19 symptoms: Kaplan-Meier median value: 171.2 h
  Time to resolution of five COVID-19 symptoms: Minimum value: 9.4 h
  Time to resolution of five COVID-19 symptoms: Number of events (value in parentheses): (79.6)
  Time to resolution of five COVID-19 symptoms: Restricted mean survival time during 21 days (RMST): 234.8 h
  Time to resolution of 12 COVID-19 symptoms: Maximum value: 490.1 h
  Time to resolution of 14 COVID-19 symptoms: Maximum value: 490.1 h
  Time to resolution of five COVID-19 symptoms: Maximum value: 490.1 h
mild/moderate patients, ITT, onset to randomization less than 72 hours, 750/250 mg group, 329 cases analyzed
  Time to resolution of five COVID-19 symptoms: Number of events: 262
[7]
  Time to resolution of 12 COVID-19 symptoms: Number of events: 258
  Time to resolution of 14 COVID-19 symptoms: Number of events: 255
